# From US20100144599A1, “VEGF PATHWAY BLOCKADE” (Bristol-Myers Squibb Company, priority 2007, published 2010)
# Experiments:
# [1] = Bhuyan et al., Cancer Res. 42 (1982); cited from earlier work
# [2] = Toxicity study in the Colo205 colon carcinoma model; assay type: in vivo; details: sunitinib 60 mg/kg/day, sorafenib 80 mg/kg/day
# Procedure: An additional study was performed using the Colo205 colon carcinoma model to test the toxicity of sunitinib (60 mg/kg/day), sorafenib (80 mg/kg/day), and Comp-I (30 mg/kg/day) treatment.
# Colo205 colon carcinoma = test: Tumor inhibition, Colo-205 colon carcinoma xenogeneic s.c. model; assay type: in vivo, Human; details: 60 mg/kg, treatment started at average tumor size 200 mm^3, Kaplan Meier (FIG. 3)
# Procedure: (§1) The anti-tumor effect of Comp-I was compared to bevacizumab treatment in a model of colon (Colo205 colon carcinoma) and brain (U87 glioblastoma) tumors.
# The anti-tumor effect of Comp-I was also compared to treatment with sunitinib and sorafenib in a Colo205 colon carcinoma model. FIG. 3 depicts a Kaplan Meier Survival analysis on the length of time for individual tumors to reach a given size. […] All three compounds were administered at 60 mg/kg.
# U87 glioblastoma = test: Tumor inhibition, U87 glioblastoma xenograft model; assay type: in vivo, Human; details: nude male mice, 30 mg/kg Comp-I or 5 mg/kg bevacizumab bi-weekly, 20 days (FIG. 2)
# Procedure: The effect of Comp-I and bevacizumab treatment was assessed in a U87 xenograft model of human glioblastoma (FIG. 2). Briefly, nude male mice, 6-7 weeks of age, were implanted with U87 glioblastoma tumor cells (5×10^6) subcutaneously on the right flank. Tumor growth was monitored 2 times per week using caliper measurement. Drug treatment was initiated after the tumors reached a size of at least 50 mm^3.Tumor growth inhibition over vehicle was greater in Comp-I (56%) as compared to bevacizumab (35%) treatment.
# as §1
Compound,"potency in vitro relative to commonly used anti-cancer drugs, such as doxorubicin, methotrexate and vincristine [1]",mice survived [2],tumors remaining under 500 mm^3 (Colo205 colon carcinoma),Tumor growth inhibition over vehicle (U87 glioblastoma) [%]
COc1c(O)c2c(c3cc(C(=O)N4CCc5c4c(O)c(OC)c4[nH]c(C(=O)N6CC7CC78C6=CC(=O)c6[nH]cc(C)c68)cc54)[nH]c13)CCN2C(N)=O (stereo not drawn) [CC-1065],about 1000 fold,,,
CNC(=O)c1cc(Oc2ccc(NC(=O)Nc3ccc(Cl)c(C(F)(F)F)c3)cc2)ccn1 [sorafenib],,14/15,around 60%,
CCN(CC)CCNC(=O)c1c(C)[nH]c(/C=C2\C(=O)Nc3ccc(F)cc32)c1C [sunitinib],,12/15,around 60%,
bevacizumab,,,,35
